Biological target: T1, human CRTH2 (Homo sapiens, UniProt Q9Y5Y4)
T1 construct: expressed in transfected cells
T1 sequence (Q9Y5Y4 1-395): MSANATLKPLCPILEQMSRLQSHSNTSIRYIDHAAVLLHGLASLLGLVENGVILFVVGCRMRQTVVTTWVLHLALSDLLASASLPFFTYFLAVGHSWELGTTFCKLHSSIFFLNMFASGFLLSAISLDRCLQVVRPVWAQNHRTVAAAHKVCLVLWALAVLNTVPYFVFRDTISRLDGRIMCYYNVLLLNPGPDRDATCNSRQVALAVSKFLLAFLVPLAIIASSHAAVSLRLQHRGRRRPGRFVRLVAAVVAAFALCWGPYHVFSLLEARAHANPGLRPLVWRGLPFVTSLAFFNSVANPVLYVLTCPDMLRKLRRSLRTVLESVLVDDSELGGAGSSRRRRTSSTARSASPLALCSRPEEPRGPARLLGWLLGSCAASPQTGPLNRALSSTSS
Experiment: Human CRTH2 Receptor Binding Assay (whole cell, [3H]ramatroban competition)
Conditions: CHO-K1 cells expressing human CRTH2 and G-alpha16; 20 nM [3H]ramatroban; 1 hour, room temperature
Method in brief: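 CHO-K1 cells stably co-expressing human CRTH2 and G-alpha16, 1.5×10^5 per reaction, incubated 1 hour at room temperature with 20 nM [3H]ramatroban in PBS containing 10 mM MgCl2 and 0.06% BSA. Non-specific binding defined with 10 μM 15(R)-15-methyl PGD2. IC50 from 7 concentrations by 4-parameter logistic fit of specific binding inhibition.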

Structure (SMILES)	IC50 [nM]
O=C(O)CCn1ncc2c1CCC[C@H]2NS(=O)(=O)c1cnc(Oc2ccccc2Cl)c(Br)c1 [Example 2-11a, 3-{(R)-4-[5-Bromo-6-(2-chloro-phenoxy)-pyridine-3-sulfonylamino]-4,5,6,7-tetrahydro-indazol-1-yl}-propionic acid]	18.2
O=C(O)Cn1ncc2c1CCC[C@H]2NS(=O)(=O)c1ccc(-c2ccccc2)cc1 [Example 1-2a, [(R)-4-(Biphenyl-4-sulfonylamino)-4,5,6,7-tetrahydro-indazol-1-yl]-acetic acid]	93.6
CN([C@@H]1CCCc2c1cnn2CC(=O)O)S(=O)(=O)c1cc(-c2ccc(F)cc2)cc(C(F)(F)F)c1 [Example 12-1a, {(R)-4-[(4′-Fluoro-5-trifluoromethyl-biphenyl-3-sulfonyl)-methyl-amino]-4,5,6,7-tetrahydro-indazol-1-yl}-acetic acid]	130
CN([C@@H]1CCCc2c1cnn2CC(=O)O)S(=O)(=O)c1ccc(Oc2ccc(Cl)cc2)cc1Cl [Example 9-4a, ((R)-4-{[2-Chloro-4-(4-chloro-phenoxy)-benzenesulfonyl]-methyl-amino}-4,5,6,7-tetrahydro-indazol-1-yl)-acetic acid]	37.1
CN([C@@H]1CCCc2c1cnn2CC(=O)O)S(=O)(=O)c1ccc(Oc2ccccc2F)c(Cl)c1 [Example 9-37a, ((R)-4-{[3-Chloro-4-(2-fluoro-phenoxy)-benzenesulfonyl]-methyl-amino}-4,5,6,7-tetrahydro-indazol-1-yl)-acetic acid]	14.8
CN([C@@H]1CCCc2c1cnn2CC(=O)O)S(=O)(=O)c1ccc(Oc2ccccc2Cl)c(Cl)c1 [Example 9-1a, ((R)-4-{[3-Chloro-4-(2-chloro-phenoxy)-benzenesulfonyl]-methyl-amino}-4,5,6,7-tetrahydro-indazol-1-yl)-acetic acid]	5.5
CN([C@@H]1CCCc2c1cnn2CC(=O)O)S(=O)(=O)c1ccc(Oc2ccc(OC(F)(F)F)cc2)c(Cl)c1 [Example 9-28a, ((R)-4-{[3-Chloro-4-(4-trifluoromethoxy-phenoxy)-benzenesulfonyl]-methyl-amino}-4,5,6,7-tetrahydro-indazol-1-yl)-acetic acid]	11.8
COc1ccc(-c2ccc(S(=O)(=O)NC3CCCc4c3cnn4CC(=O)O)cc2)cc1 (stereo not shown) [Example 10-1a, [4-(4′-Methoxy-biphenyl-4-sulfonylamino)-4,5,6,7-tetrahydro-indazol-1-yl]-acetic acid]	215
CCOc1ccc(-c2ccc(S(=O)(=O)NC3CCCc4c3cnn4CC(=O)O)cc2)cc1 (stereo not shown) [Example 10-3a, [4-(4′-Ethoxy-biphenyl-4-sulfonylamino)-4,5,6,7-tetrahydro-indazol-1-yl]-acetic acid]	194
O=C(O)Cn1ncc2c1CCCC2NS(=O)(=O)c1ccc(-c2ccc(Cl)cc2)cc1 (stereo not shown) [Example 10-6a, [4-(4′-Chloro-biphenyl-4-sulfonylamino)-4,5,6,7-tetrahydro-indazol-1-yl]-acetic acid]	207
O=C(O)Cn1ncc2c1CCCC2NS(=O)(=O)c1cc(-c2ccccc2)cc(C(F)(F)F)c1 (stereo not shown) [Example 10-16a, [4-(5-Trifluoromethyl-biphenyl-3-sulfonylamino)-4,5,6,7-tetrahydro-indazol-1-yl]-acetic acid]	66.1
O=C(O)Cn1ncc2c1CCCC2NS(=O)(=O)c1cccc(-c2ccccc2Cl)c1 (stereo not shown) [Example 10-12a, [4-(2′-Chloro-biphenyl-3-sulfonylamino)-4,5,6,7-tetrahydro-indazol-1-yl]-acetic acid]	311
O=C(O)Cn1ncc2c1CCCC2NS(=O)(=O)c1cnc(Oc2ccc(F)c(F)c2)c(Br)c1 (stereo not shown) [Example 2-10a, {4-[5-Bromo-6-(3,4-difluoro-phenoxy)-pyridine-3-sulfonylamino]-4,5,6,7-tetrahydro-indazol-1-yl}-acetic acid]	196
CN([C@@H]1CCCc2c1cnn2CC(=O)O)S(=O)(=O)c1cc(F)c(Oc2ccc(F)cc2)c(F)c1 [Example 9-39a, ((R)-4-{[3,5-Difluoro-4-(4-fluoro-phenoxy)-benzenesulfonyl]-methyl-amino}-4,5,6,7-tetrahydro-indazol-1-yl)-acetic acid]	10.4
COc1ccc(Oc2ccc(S(=O)(=O)N(C)[C@@H]3CCCc4c3cnn4CC(=O)O)cc2Cl)cc1 [Example 9-31a, ((R)-4-{[3-Chloro-4-(4-methoxy-phenoxy)-benzenesulfonyl]-methyl-amino}-4,5,6,7-tetrahydro-indazol-1-yl)-acetic acid]	6.8
O=C(O)Cn1ncc2c1CCCC2NS(=O)(=O)c1cccc(NS(=O)(=O)c2ccccc2)c1 (stereo not shown) [Example 15-1a, [4-(3-Benzenesulfonylamino-benzenesulfonylamino)-4,5,6,7-tetrahydro-indazol-1-yl]-acetic acid]	360

Structure (SMILES)	IC50 [nM]
CN([C@@H]1CCCc2c1cnn2CCC(=O)O)S(=O)(=O)c1ccc(-c2cccc(C(F)(F)F)c2)cc1 [Example 11-2a, 3-{(R)-4-[Methyl-(3′-trifluoromethyl-biphenyl-4-sulfonyl)-amino]-4,5,6,7-tetrahydro-indazol-1-yl}-propionic acid]	80.7
O=C(O)Cn1ncc2c1CCCC2NS(=O)(=O)c1ccc(-c2ccccc2)c(F)c1 (stereo not shown) [Example 10-8a, [4-(2-Fluoro-biphenyl-4-sulfonylamino)-4,5,6,7-tetrahydro-indazol-1-yl]-acetic acid]	412
O=C(O)Cn1ncc2c1CCCC2NS(=O)(=O)c1cnc(Oc2cccc(Cl)c2)c(Br)c1 (stereo not shown) [Example 2-3a, {4-[5-Bromo-6-(3-chloro-phenoxy)-pyridine-3-sulfonylamino]-4,5,6,7-tetrahydro-indazol-1-yl}-acetic acid]	19.4
Cc1ccc(S(=O)(=O)c2cc(C(F)(F)F)cc(S(=O)(=O)N(C)[C@@H]3CCCc4c3cnn4CCC(=O)O)c2)cc1 [Example 13-6a, 3-((R)-4-{Methyl-[3-(toluene-4-sulfonyl)-5-trifluoromethyl-benzenesulfonyl]-amino}-4,5,6,7-tetrahydro-indazol-1-yl)-propionic acid]	7.8
O=C(O)CCn1ncc2c1CCC[C@H]2NS(=O)(=O)c1cnc(Oc2ccc(Cl)cc2)c(Br)c1 [Example 2-12a, 3-{(R)-4-[5-Bromo-6-(4-chloro-phenoxy)-pyridine-3-sulfonylamino]-4,5,6,7-tetrahydro-indazol-1-yl}-propionic acid]	30.3
CN([C@@H]1CCCc2c1cnn2CC(=O)O)S(=O)(=O)c1ccc(Oc2ccc(Cl)cc2Cl)cc1Cl [Example 9-8a, ((R)-4-{[2-Chloro-4-(2,4-dichloro-phenoxy)-benzenesulfonyl]-methyl-amino}-4,5,6,7-tetrahydro-indazol-1-yl)-acetic acid]	91.4
Cc1ccc(Oc2ccc(S(=O)(=O)N(C)[C@@H]3CCCc4c3cnn4CC(=O)O)cc2Cl)c(C)c1 [Example 9-19a, ((R)-4-{[3-Chloro-4-(2,4-dimethyl-phenoxy)-benzenesulfonyl]-methyl-amino}-4,5,6,7-tetrahydro-indazol-1-yl)-acetic acid]	11.4
CN([C@@H]1CCCc2c1cnn2CC(=O)O)S(=O)(=O)c1cnc(Oc2ccc(Cl)cc2Cl)c(Br)c1 [Example 6-4a, ((R)-4-{[5-Bromo-6-(2,4-dichloro-phenoxy)-pyridine-3-sulfonyl]-methyl-amino}-4,5,6,7-tetrahydro-indazol-1-yl)-acetic acid]	4.6
O=C(O)Cn1ncc2c1CCCC2NS(=O)(=O)c1cc(Oc2ccccc2)cc(C(F)(F)F)c1 (stereo not shown) [Example 5-4a, [4-(3-Phenoxy-5-trifluoromethyl-benzenesulfonylamino)-4,5,6,7-tetrahydro-indazol-1-yl]-acetic acid]	35.9
O=C(O)Cn1ncc2c1CCCC2NS(=O)(=O)c1ccc(-c2cc(C(F)(F)F)cc(C(F)(F)F)c2)cc1 (stereo not shown) [Example 10-24a, [4-(3′,5′-Bis-trifluoromethyl-biphenyl-4-sulfonylamino)-4,5,6,7-tetrahydro-indazol-1-yl]-acetic acid]	97.5
CN([C@@H]1CCCc2c1cnn2CC(=O)O)S(=O)(=O)c1cc(Cl)c(Oc2ccc(F)cc2)cc1F [Example 9-30a, ((R)-4-{[5-Chloro-2-fluoro-4-(4-fluoro-phenoxy)-benzenesulfonyl]-methyl-amino}-4,5,6,7-tetrahydro-indazol-1-yl)-acetic acid]	37.7
CN([C@@H]1CCCc2c1cnn2CC(=O)O)S(=O)(=O)c1ccc(Oc2cccc(Cl)c2)c(Cl)c1 [Example 9-2a, ((R)-4-{[3-Chloro-4-(3-chloro-phenoxy)-benzenesulfonyl]-methyl-amino}-4,5,6,7-tetrahydro-indazol-1-yl)-acetic acid]	12.2
O=C(O)Cn1ncc2c1CCCC2NS(=O)(=O)c1cccc(Oc2ccccc2)c1 (stereo not shown) [Example 1-5a, [4-(3-Phenoxy-benzenesulfonylamino)-4,5,6,7-tetrahydro-indazol-1-yl]-acetic acid]	164
CS(=O)(=O)c1cccc(-c2ccc(S(=O)(=O)N[C@@H]3CCCc4c3cnn4CC(=O)O)cc2)c1 [Example 10-28a, [(R)-4-(3′-Methanesulfonyl-biphenyl-4-sulfonylamino)-4,5,6,7-tetrahydro-indazol-1-yl]-acetic acid]	6.6
O=C(O)Cn1ncc2c1CCC[C@H]2NS(=O)(=O)c1cnc(Oc2ccc(Cl)cc2)c(Br)c1 [Example 2-8a, {(R)-4-[5-Bromo-6-(4-chloro-phenoxy)-pyridine-3-sulfonylamino]-4,5,6,7-tetrahydro-indazol-1-yl}-acetic acid]	7.8

From patent publication US8420675B2, “Aminotetrahydroindazoloacetic acids” (Hoffmann-La Roche Inc., priority 2008, dated 2013)
